Experimental findings from patent US9487508B2, “SGC stimulators” (IRONWOOD PHARMACEUTICALS, INC., priority 2012, dated 2016) are described below.

Assay [1] addresses T1, soluble guanylate cyclase (sGC) (Homo sapiens, UniProt Q02108+Q02153).
T1 construct: endogenously expressing soluble guanylate cyclase (sGC); endogenous in cells; host or cells: HEK293
T1 sequence (Q02153 1-619): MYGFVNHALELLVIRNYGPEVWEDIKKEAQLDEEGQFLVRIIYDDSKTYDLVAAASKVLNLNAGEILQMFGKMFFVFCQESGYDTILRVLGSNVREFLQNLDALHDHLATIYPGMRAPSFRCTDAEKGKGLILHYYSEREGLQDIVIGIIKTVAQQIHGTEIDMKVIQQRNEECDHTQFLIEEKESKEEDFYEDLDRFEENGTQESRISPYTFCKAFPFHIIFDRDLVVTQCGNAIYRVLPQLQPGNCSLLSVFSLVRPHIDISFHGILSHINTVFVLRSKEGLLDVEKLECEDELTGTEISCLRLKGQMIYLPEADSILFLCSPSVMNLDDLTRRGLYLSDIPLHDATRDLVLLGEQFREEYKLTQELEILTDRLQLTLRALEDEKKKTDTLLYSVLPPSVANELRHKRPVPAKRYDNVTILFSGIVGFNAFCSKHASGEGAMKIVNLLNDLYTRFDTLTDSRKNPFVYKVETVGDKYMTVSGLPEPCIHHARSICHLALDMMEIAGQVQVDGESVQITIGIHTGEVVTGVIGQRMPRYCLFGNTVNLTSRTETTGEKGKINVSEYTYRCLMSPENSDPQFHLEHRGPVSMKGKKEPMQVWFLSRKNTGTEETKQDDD
T1 sequence (Q02108 1-690): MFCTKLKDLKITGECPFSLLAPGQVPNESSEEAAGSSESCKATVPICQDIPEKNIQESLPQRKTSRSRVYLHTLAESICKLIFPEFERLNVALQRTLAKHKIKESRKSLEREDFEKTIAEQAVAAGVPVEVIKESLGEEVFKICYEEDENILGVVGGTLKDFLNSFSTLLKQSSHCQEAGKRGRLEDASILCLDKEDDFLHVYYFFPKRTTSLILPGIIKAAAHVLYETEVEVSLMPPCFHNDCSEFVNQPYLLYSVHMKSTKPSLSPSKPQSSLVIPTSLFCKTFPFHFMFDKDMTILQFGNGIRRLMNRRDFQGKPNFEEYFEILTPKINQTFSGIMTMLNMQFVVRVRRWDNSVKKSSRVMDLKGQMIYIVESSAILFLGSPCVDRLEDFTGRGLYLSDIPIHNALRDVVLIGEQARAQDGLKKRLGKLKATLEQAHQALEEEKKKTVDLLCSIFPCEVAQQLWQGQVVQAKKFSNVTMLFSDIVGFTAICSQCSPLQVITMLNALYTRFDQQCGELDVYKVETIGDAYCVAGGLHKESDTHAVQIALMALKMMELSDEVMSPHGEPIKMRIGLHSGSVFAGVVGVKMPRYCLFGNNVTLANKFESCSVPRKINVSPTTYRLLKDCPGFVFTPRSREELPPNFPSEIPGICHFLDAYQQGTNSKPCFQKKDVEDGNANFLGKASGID
Briefly: sGC-HEK-cGMP assay with SNP incubation (LC/MS read-out). Format: cell-based. As to conditions: 10 μM SNP, 100% = BAY 41-2272 at 10 μM with 100 μM SNP. The protocol: (Assay Run with SNP Incubation)
Human embryonic kidney cells (HEK293), endogenously expressing soluble guanylate cyclase (sGC), were used to evaluate the activity of test compounds. Compounds stimulating the sGC receptor should cause an increase in the intracellular concentration of cGMP. HEK 293 cells were seeded in Dulbecco's Modification of Eagle's Medium supplemented with fetal bovine serum (10% final) and L-glutamine (2 mM final) in a 200 μL volume at a density of 1×10^5 cells/well in a poly-D-lysine coated 96 well flat bottom plate and grown overnight at 37° C. Medium was aspirated and cells were washed with 1× Hank's Buffered Saline Salt Solution (200 μL). Cells were then incubated for 15 minutes at 37° C. with 200 μL of a 0.5 mM 3-isobutyl-1-methylxanthine (IBMX) solution. Test article and sodium nitroprusside solutions (x μM concentration for test article solution and 10 μM concentration for SNP solution; wherein x is one of the following concentrations);
were then added to the assay mixture (2 μL each) and the resulting mixture incubated at 37° C. for 10 minutes. After the 10 minute incubation, the assay mixture was aspirated and 0.1M HCl (200 μL) was added to the cells. The plate was incubated at 4° C. for 30 minutes in the 0.1M HCl to stop the reaction and lyse the cells. The plates were then centrifuged at 1,200 g for 5 minutes at room temperature. Supernatants were collected and transferred to a new flat bottom 96 well plate for analysis by HPLC-MS. Vehicle controls were carried out using DMSO (1%) solutions. A known sGC stimulator, BAY 41-2272, was used as the positive control. Samples were diluted with an equal volume of 1 M Ammonium Acetate (pH 7) to neutralize samples for better chromatography. A 2×cGMP standard solution was prepared in 0.1 M HCl and then diluted with an equal volume of 1 M Ammonium Acetate, with the following final concentrations in nM: 1024, 512, 256, 128, 64, 32, 16, 8, 4, 2, 1. cGMP concentrations in the test plates were determined from each sample using the LC/MS conditions shown in Table 2 below and the calculated cGMP standard curve. EC50 values were calculated from concentration-response curves generated with GraphPad Prism Software.
The biological activities of some of the compounds of Formula I or Formula Ib determined with the sGC-HEK assay with SNP incubation are summarized in Tables 3A and 3B.

Assay [2] deals with T2, Human soluble guanylate cyclase enzyme (hsGC) (Homo sapiens, UniProt Q02108+Q02153).
T2 construct: purchased Enzo Inc. ALX-201-177
T2 sequence (Q02153 1-619): T1 sequence (Q02153 1-619)
T2 sequence (Q02108 1-690): T1 sequence (Q02108 1-690)
Briefly: Purified human sGC enzyme activity assay (without SNP). Type of assay: biochemical. The conditions noted are these: 30 μM compound, fold change of specific activity vs DMSO control. How it is done:
(§1) Human soluble guanylate cyclase enzyme (hsGC) obtained from Enzo Inc. (P/N: ALX-201-177) was used to evaluate the activity of test compounds. The assay reactions contained 0.1 M Tris (pH 8.0), 0.5 mg/mL BSA (pH 8.0), 2 mM DTT, 2 mM MgCl2, 300 μM GTP, 1 mM 3-isobutyl-1-methylxanthine (IBMX) and 5 ng human soluble guanylate cyclase enzyme. Test compounds in DMSO were then added (2 μL, 10 or 30 μM final concentration) and incubated (water, 200 μL, 96-well plate format) at 37° C. for 30 minutes. The controls were carried out using 2 μL DMSO. After the 30 minute incubation, the reaction was stopped with the addition of 200 μL of cold methanol. The plate was then centrifuged at 3,200 rpm for 10 minutes at room temperature. Supernatants (200 μL) were collected and transferred to a new 96 well plate for analysis by HPLC LC/MS/MS.
(§2) An 8 point cGMP (Sigma-Aldrich P/N: G6129) standard curve was prepared in assay buffer ranging from 0.156-20 μM. Samples for the cGMP standard curve were then diluted with an equal volume of methanol resulting in final cGMP concentrations of 0.078-10 μM.
(§3) The cGMP standard curve was generated using GraphPad Prism Software.
Calculations: Specific Activity was determined by the amount of cGMP formed (nmoles) per mg of sGC per min. Enzyme “fold-change” was calculated by dividing Specific Activity for test compounds by Specific Activity of DMSO controls.

The target of assay [3] is T2, Human soluble guanylate cyclase enzyme (hsGC). Nature of the assay: Purified human sGC enzyme synergy assay in the presence of sodium nitroprusside (SNP). Type of assay: biochemical. As to conditions: 30 μM compound, 1 μM SNP; fold change of specific activity vs DMSO control. How it is done:
as §1, §2, §3
Calculations: Specific Activity was determined by the amount of cGMP formed (nmoles) per mg of sGC per min. Enzyme “fold-change” was calculated by dividing Specific Activity for test compounds by Specific Activity of DMSO controls. […]

Assay [4] concerns Guinea pig tracheal smooth muscle. Briefly: Electrical field stimulated guinea pig tracheal smooth muscle contraction (ex vivo). The conditions noted are these: sub-maximal EFS; pooled data of three experiments; 95% CI 0.78-0.94; read-out: IC50, inhibition of EFS-induced tracheal smooth muscle contraction. An excerpt: It is possible to assess the bronchodilating effects of sGC stimulators by using the system described below. This system allowed us to determine potency, efficacy and duration of action of several sGC stimulators, as well as to assess potential side effects such as blood pressure, or heart rate changes.
Animals: Guinea pig, Dunkin Hartley, male, Full barrier-bred and certified free of specific micro-organisms on receipt 525-609 g on the experimental day, Harlan UK Ltd. Guinea pigs were housed in a group of 4 in solid-bottomed cages with Gold Flake bedding in a controlled environment (airflow, temperature and humidity). Food (FD1, Special Diet Services) and water were provided ad libitum.
On each experimental day, a guinea pig was killed by exposure to a rising concentration of CO2 and the trachea removed. […] Tissues were washed with Kreb's buffer and stimulated using the previously determined sub-maximal voltage for 1 hour to establish a stable baseline contraction prior to assessment of compound activity.
A cumulative dose response curve (DRC) to each test substance was then performed and changes in smooth muscle contraction measured. The effect of each test substance in each experiment was expressed as a percentage inhibition of the baseline contraction, normalized to the relevant vehicle controls. […]

For orientation: Emax means the size of the effect at its maximum, as opposed to the concentration needed. As to `Nc1nc(-n2cc(-c3ncco3)c(Cc3ccccc3F)n2)ncc1F` [Compound I-8], the Emax at 10 µM in assay [1] (10 μM compound, read-out: HEK assay (Percent Emax at 10 μM)) was in the range of 60 to 80%. Further, the Emax at 30 µM in assay [1] (30 μM compound, read-out: HEK assay (Percent Emax at 30 μM)) was 60 to 80%. In addition, the “Enzyme Activity (increase at 30 μM without SNP)” value in assay [2] was “C (C = 5 to <10 fold increase)”. Besides, the “Enzyme Activity (increase at 30 μM with SNP)” value in assay [3] is reported as “E (E = 20 to 30 fold increase)”.
As usually defined, the IC50 is the point on the concentration scale where inhibition reaches its midpoint. For the compound `CC(C)[N+]1(C)[C@@H]2CC[C@H]1CC(OC(=O)C(CO)c1ccccc1)C2` (some centres unmarked) [Ipratropium bromide], the IC50 in assay [4] came to 0.86 nM.
